Assay results taken from patent publication US20060083759A1, “Stabilization of the profile of release of active substances from a formulation” (priority 2002, published 2006).

Experiment: release (dissolution) of clarithromycin from tablets at aging / stability testing
Type: physicochemical
Details: for change of tablet dissolution at aging: clarithromycin particle size over 200 μm
Excerpt: By comparing the profiles it has been established that the release rate of a high dosage active substance being poorly soluble in an aqueous medium from a formulation changes with aging, which is even more expressed in the conditions of an accelerated stability assay.
Thus recrystallization is kept at the lowest possible level. In the case of micronizing clarithromycin with large particles also the particle porosity and brittleness are reduced. Micronized clarithromycin can either be already the product of a basic synthesis process or it may be micronized later from clarithromycin with large particles.

changes in the release rate (particle size d(0.9) up to about 30 μm at the most, humidified with a minimum amount of water): minimized | change of tablet dissolution at aging (tablets made by aqueous granulation): noticeably decreases | change of tablet dissolution at aging (tablets made by direct tabletting): noticeably increases
Structure (SMILES): CC[C@H]1OC(=O)[C@H](C)[C@@H](O[C@H]2C[C@@](C)(OC)[C@@H](O)[C@H](C)O2)[C@H](C)[C@@H](O[C@@H]2O[C@H](C)C[C@H](N(C)C)[C@H]2O)[C@](C)(OC)C[C@@H](C)C(=O)[C@H](C)[C@@H](O)[C@]1(C)O [clarithromycin]
